Source: patent US11202773B2, “Locally bioavailable drugs” (UNIVERSITY OF HOUSTON SYSTEM, priority 2015, dated 2021)

Columns and labels:
Caco-2 cell monolayer = test: Metabolism and transport across Caco-2 cell monolayers; format: in vitro ADME, human; settings: 0-8 hours
Protocol: The Caco-2 cell monolayer is a well-established FDA-recognized model to study the absorption, transport, and metabolism of drugs in the human gastrointestinal tract. This allows for prediction of the disposition of the new compounds in colonic epithelium that is also undergoing carcinogenesis, because Caco-2 is a human colorectal cancer cell line.
After 10 μM 6a1 was applied to the apical or basolateral side of the Caco-2 monolayer model, the concentrations of 6a1 and its main phase II metabolites, glucuronide and sulfate, were monitored at both sides (FIG. 6A-D). The concentration of aglycone was also monitored at both sides. […] The majority of sulfates were effluxed to the apical side, while less was transported to the basolateral side. The amount of glucuronide generated by Caco-2 cells was much less than that of sulfates. The glucuronide was also transported to both sides.

[1] = rat, in vivo
Protocol: For this purpose, blood samples were collected from each rat every hour during the perfusion period, and the bile samples were also collected by cannulating the bile duct.
By comparing the 6a1 concentrations in the input and output perfusate containing β-CD-formulated 6a1, the amounts of 6a1 absorbed from the colon were calculated for each hour during the perfusion period (FIG. 10B).

SMILES: Cc1ccc(-c2cc(COc3ccccc3O)nn2-c2ccc(S(N)(=O)=O)cc2)cc1 [Compound 6a1]
- Permeation of the Caco-2 cell membrane (Caco-2 cell monolayer; 10 μM applied to apical or basolateral side): permeated the Caco-2 cell membrane easily
- Phase II conjugation inside Caco-2 cells (Caco-2 cell monolayer; 10 μM): rapidly conjugated by UGTs and SULTs
- 6a1-glucuronide concentration in bile [1]: more than 200 μM
- Absorbed amount recovered from bile as glucuronides [1]: approximately 75%
- Fraction absorbed in the colon that escaped first-pass metabolism in the liver [1]: less than 1%
- Fraction of total perfused amount absorbed in the colon [1]: Approximately 13%
